Experimental data published in patent publication US5220029A, “Synthetic proteolytic substrate” (Vitek Systems, Inc., priority 1990, dated 1993).
Where “and” joins values, the source holds several entries; their conditions need not be identical. Equal values may be shown once.

Key:
trypsin [1] = assay: Determination of kinetic constants for the trypsin catalyzed hydrolysis (continuous assay); assay type: biochemical; details: triplicate
Text: (§1) The invention may be more thoroughly understood by reference to the included examples which describe the synthesis of amides of the type RCO-MBTH (Examples 1-15) and a continuous enzyme assay (Example 16). A disconintuous assay is illustrated in Example 17. Example 18 is a determination of the kinetic catalytic constant (kc) and binding constant (Km) for trypsin-catalyzed hydrolysis of an RCO-MBTH substrate by the continuous assay method.
Determination of the Kinetic Constants for the Trypsin Catalyzed Hydrolysis of N-(N-t-butoxycarbonyl)-L-Arginyl 3-methyl benzothiazolinone hydrazone (continuous assay)
In a one-cm. cuvette were mixed 3.0 mL of 0.02M tris buffer, pH 7.8, containing 0.02M 3-dimethylamino benzoic acid (DMAB) 0.1 mL of 0.065M potassium ferricyanide, and 0.1 mL of substrate (Boc-ARG-MBTH). The reaction was initiated by the addition of 0.1 mL of trypsin (2.33×10^-4 M in 0.1M pyrophosphate buffer, pH 8.3). Eight concentrations of substrate, from 9.98×10^-4 M to 7.8×10^-6 M, were assayed in triplicate. The increase in absorption at 590 nm was monitored continuously and the initial rates were determined. Under the conditions of the assay, a molar absorptivity of 57,000 was used to determine the concentration of the chromogen (MBTH-DMAB) produced by the hydrolysis of substrate. Table I contains the date used to determine the binding and kinetic constants (Km, kc).

trypsin [2] = assay: Continuous assay for trypsin (saturation kinetics), color development by DMAB/ferricyanide at 590 nm; assay type: biochemical; details: 1 μg trypsin, 0.14M Tris pH 7.8, substrate 1.74×10^-3, 5.8×10^-4 and 3.9×10^-4 M in triplicate
Text: as §1
Saturation kinetics for N-(N-benzyloxycarbonyl)glycyl-L-prolyl-L-arginyl 3-methyl-2-benzothiazolinone hydrazone with trypsin
A continuous assay for trypsin was performed, i.e., the oxidizing and coupling reagents for color development were included with the substrate in the reaction mixture so that color development may be monitored on a continuous basis with time. In this example the dye precursor is developed to a dye without destroying the enzymatic activity of the enzyme. The reaction was initiated by the addition of 0.1 mL of enzyme (10 μg/mL) to 0.9 mL of buffer solution containing substrate (Z-GLY-PRO-ARG-MBTH) and color developing reagents. […] The increases in absorbance at 590 nm were monitored continuously for 5 minutes and the initial rates determined. Using the molar absorptivity of 57,000 for the chromogen produced (MBTH-DMAB), the average rate of hydrolysis was calculated to be 4.43+0.1×10^-6 mol min^-1.

SMILES	1/V (trypsin [1]; 1/s 100 M^-1)	1/V (trypsin [1]; 1/s 200 M^-1)	1/V (trypsin [1]; 1/s 401 M^-1)	1/V (trypsin [1]; 1/s 802 M^-1)	1/V (trypsin [1]; 1/s 1603 M^-1)	1/V (trypsin [1]; 1/s 2305 M^-1)	1/V (trypsin [1]; 1/s 6413 M^-1)	1/V (trypsin [1]; 1/s 12826 M^-1)	average rate of hydrolysis (trypsin [2])
Cn1c(=NNC(=O)[C@H](CCCNC(=N)N)NC(=O)OC(C)(C)C)sc2ccccc21 [Boc-ARG-MBTH, N-(N-t-butoxycarbonyl)-L-Arginyl 3-methyl benzothiazolinone hydrazone]	0.000565 min/M and 0.000528 min/M and 0.000625 min/M	0.000699 min/M and 0.000742 min/M	0.000766 min/M and 0.00088 min/M and 0.000819 min/M	0.001033 min/M and 0.00108 min/M and 0.001188 min/M	0.001697 min/M and 0.001827 min/M	0.002969 min/M and 0.003393 min/M	0.005056 min/M and 0.00528 min/M	0.009901 min/M and 0.009506 min/M	
Cn1c(=NNC(=O)[C@H](CCCNC(=N)N)NC(=O)[C@@H]2CCCN2C(=O)CNC(=O)OCc2ccccc2)sc2ccccc21 [Z-GLY-PRO-ARG-MBTH, N-(N-benzyloxycarbonyl)glycyl-L-prolyl-L-arginyl 3-methyl-2-benzothiazolinone hydrazone]									4.43+0.1×10^-6 mol min^-1
